This is an account of results in patent US9873693B2 (Sunesis Pharmaceuticals, Inc., priority 2006, dated 2018).

Read-outs that look alike come from different tables or passages of the source.

In one assay the target is dephosphorylated PDK1 (Homo sapiens (Human), UniProt O15530). Nature of the assay: PDK1 kinase assay (coupled PDK1/AKT/FAM-crosstide, IMAP). The class given is biochemical. Particulars: 25 nM un-phosphorylated PDK1, 24 μM ATP; read-out: Inhibition of dephospo-PDK1 in vitro IC50. In outline: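 The FAM-crosstide phosphorylation readout was IMAP polarization (ex 485/em 530 nm, 2 h binding), with 4-parameter fits of ΔmP data. The reaction ran 30 min at 25 °C with 24 μM ATP, and contained 25 nM phosphatase-treated PDK1 (aa 51–360) plus 30 nM unphosphorylated AKT2-PIFtide and 100 nM substrate. Buffer was 10 mM Tris pH 7.2, 10 mM MgCl2, 0.01% Triton X-100 and 1 mM DTT.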
Chain of dephosphorylated PDK1 (O15530 51-360): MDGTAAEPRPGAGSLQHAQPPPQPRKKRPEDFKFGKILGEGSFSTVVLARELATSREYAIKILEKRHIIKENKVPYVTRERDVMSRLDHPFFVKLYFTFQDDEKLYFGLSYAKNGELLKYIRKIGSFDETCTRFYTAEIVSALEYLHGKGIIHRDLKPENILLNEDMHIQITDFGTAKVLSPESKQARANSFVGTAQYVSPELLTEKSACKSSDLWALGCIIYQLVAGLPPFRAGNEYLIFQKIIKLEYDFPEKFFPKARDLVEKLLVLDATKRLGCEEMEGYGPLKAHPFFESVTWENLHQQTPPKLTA

The test system of another assay is phospho-akt (Thr308). The experiment in a line: phospho-akt (Thr308) MSD ELISA in PC-3 cells. The class given is cell-based. The following applies: Homo sapiens; for inhibition at 1 µM / inhibition at 10 µM: read-out: Percent Inhibition of phospho-Akt (308) By MSD ELISA; for EC50: PC-3, 2 h. An outline of the steps:
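Read-out is MSD electrochemiluminescence after lysate capture overnight at 4 degrees and 1 hr RT detection-antibody step. Before lysis, overnight-plated PC-3 cells received three-fold serial dilutions of inhibitor in serum-free medium, with DMSO-only high controls.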

For the next assay, the system named is Phospho-T308 Akt. Nature of the assay: Phospho-T308 Akt detection using immunoblot (western blot) in PC-3 cells. Particulars: for Reduction of Cellular Levels of Akt p308 By Western: 2 hour incubation, concentration not given in Table 2; for inhibition at 5 µM / inhibition at 2 µM: Homo sapiens, read-out: Percent Inhibition of phospho-Akt (308) By Western. The class given is cell-based. On the procedure: A Phospho-T308 Akt detection using immunoblot (western blot) analysis was performed as described below.
PC-3 prostate cells were plated in a 6 well plate in F12K media (Invitrogen, Carlsbad, Calif.) plus 10% FBS (Invitrogen) and placed in incubator overnight. The stock of compound A was a 50 mM solution in DMSO. 1000× dilutions of the compound were made in DMSO. The 1000× dilutions include, 35 mM, 25 mM, 15 mM, 10 mM, 7 mM, 5 mM, and 1 mM. 1 μl of the 1000× dilutions was added to 1 ml F12K media without serum for final concentrations of […]. 1 μl of DMSO was added to 1 ml media with no serum for a control. The 1 ml DMSO or compound plus media was then added to the cells. Following a 2 hour incubation at 37° C., cells were harvested and washed in PBS and subjected to centrifugation at 3,300 rpm for 5 minutes. Cells were lysed in 100 μl of Bio Rad Bioplex buffer containing protease inhibitors (BioRad, Hercules, Calif.) for 30 minutes on ice followed by centrifugation at 13,000 rpm for 5 minutes. The protein content of the supernatant was assayed using DC Protein Assay (BioRad). 25 μl of protein was added to 4× sample buffer (Invitrogen) and sample reducer (Invitrogen) and run on a 4-12% NuPage gel (Invitrogen). Proteins were then transferred to nitrocellulose (Invitrogen). The membrane was blocked in Tris-buffered saline (Sigma, St. Louis, Mo.) plus 0.1% Tween (Sigma) (T-TBS) plus 5% blotting grade milk (BioRad) for 60 minutes. Membranes were then incubated in T-TBS plus 5% BSA (Sigma) plus 1:1000 of anti-phospho akt (Thr 308) (Cell Signaling Technology, Beverly, Mass.) overnight at 4° C. Membranes were washed in T-TBS then incubated in 1:2000 of anti-rabbit-HRP (Cell Signaling) in TTBS plus 5% milk. Membranes were washed again and proteins were visualized with Super Signal West Pico (Pierce, Rockford, Ill.) and using Kodak BioMax MR film (Kodak, Rochester, N.Y.).
Phospho-akt 308 protein bands on the film were quantified using densitometry. An Alpha Imager (Alpha Innotech Corp, San Leandro, Calif.) using AlphaEase FC software version 4.1.0 (Alpha Innotech Corp.) was used to quantitate protein bands. Briefly, a rectangle of equal size was placed around each protein band as well as a background spot on the film. The densitometry values (IDV=Integrated Density Value) obtained for the background spot was then subtracted from the values obtained for the protein bands. These values were used to obtain an EC50 value using non-linear regression analysis in GraphPad Prism Version 4.00 (Graph Pad Prism, San Diego, Calif.). Percent decrease in expression of phosphoh-akt 308 were also measured specifically at 2 μM and 5 μM levels of inhibitor.

The target of another assay is phosphorylated PDK1 (Homo sapiens (Human), UniProt O15530). The experiment in a line: PDK1 kinase assay (coupled PDK1/AKT/FAM-crosstide, IMAP). Particulars: 0.5 nM phosphorylated PDK1, 24 μM ATP; read-out: Inhibition of phospo-PDK1 in vitro IC50. In kind it is biochemical.
Chain of phosphorylated PDK1 (O15530 51-360): as above
Where [1] appears, read: PC-3 cells, 2 hours, no serum, read-out: Inhibition of P308 Akt in cells using MSD EC50.
Where [2] appears, read: read-out: Reduction of Cellular Levels of Akt p308 By MSD ELISA (EC50 μM).

On to `NC(=O)C[C@@H](NC(=O)c1cccn(Cc2ccc(F)c(F)c2)c1=O)c1nnc(-c2c[nH]c3ncccc23)o1` [Cpd 289], for which the half-inhibitory concentration (IC50) on dephosphorylated PDK1 is less than 500 nM. Also, in the assay with phospho-akt (Thr308) (PC-3 cells), the inhibition at 1 µM was less than 25% and the inhibition at 10 µM is less than 25%. Moreover, in the assay with Phospho-T308 Akt, the “Reduction of Cellular Levels of Akt p308 By Western” value (from here on “Reduction”) is reported as “b (inhibition of less 25%)” and the inhibition at 5 µM is less than 25%.
Consider `O=C(NCc1cccc(-c2ccc3nccn3c2)c1)c1cccn(Cc2ccc(F)c(F)c2)c1=O` [Cpd 336], for which, in the assay with phospho-akt (Thr308) (PC-3 cells), the inhibition at 1 µM lay in the range of 25 to 75% and the inhibition at 10 µM was more than 75%. The inhibition at 5 µM in the assay on Phospho-T308 Akt is more than 75%.
Take `O=C(NCc1cccc(-c2c[nH]c3ncc(F)cc23)c1)c1cccn(Cc2ccc(F)c(F)c2)c1=O` [Cpd 10]: in the assay on phospho-akt (Thr308) (setting [1]), the concentration giving a half-maximal response (EC50) lay within 1 to 5 µM. In the assay with phospho-akt (Thr308) (PC-3 cells), the inhibition at 1 µM was in the range of 25 to 75% and the inhibition at 10 µM was more than 75%. Further, on phosphorylated PDK1, the IC50 was less than 500 nM. Also, in the assay with Phospho-T308 Akt, the “Reduction” value is recorded as “bbb (inhibition of more than 75%)” and the inhibition at 5 µM is more than 75%.
Turning to `O=C(O)c1cnc2[nH]cc(-c3ccc(CNC(=O)c4cccn(Cc5ccc(F)c(F)c5)c4=O)s3)c2c1` [Cpd 21], the concentration giving a half-maximal response (EC50) in the assay with phospho-akt (Thr308) (setting [2]) is more than 5 µM. For the same molecule, the half-maximal inhibitory concentration (IC50) on phosphorylated PDK1 is less than 500 nM. Moreover, in the assay with Phospho-T308 Akt, the “Reduction” value was “b (inhibition of less 25%)” and the inhibition at 2 µM was less than 25%.
For the molecule `CC(=O)NC[C@@H](NC(=O)c1cccn(Cc2ccc(F)c(F)c2)c1=O)c1nc(-c2c[nH]c3ncccc23)cs1` [Cpd 136], in the assay on Phospho-T308 Akt, the inhibition at 5 µM fell in the range of 25 to 75%.
For the molecule `O=C(NCc1ccc(-c2c[nH]c3ncc(CO)cc23)s1)c1cccn(Cc2ccc(F)c(F)c2)c1=O` [Cpd 12], in the assay on phospho-akt (Thr308) (setting [1]), the EC50 is less than 1 µM. In the assay on phospho-akt (Thr308) (PC-3 cells), the inhibition at 1 µM fell in the range of 25 to 75% and the inhibition at 10 µM was more than 75%. On phosphorylated PDK1, the 50% inhibitory concentration (IC50) was less than 500 nM. In the assay on Phospho-T308 Akt, the “Reduction” value is “bb (inhibition of from 25% to 75%)” and the inhibition at 2 µM lay in the range of 25 to 75%.
Take `CNC(=O)C[C@@H](NC(=O)c1cccn(Cc2ccc(F)c(F)c2)c1=O)c1nnc(-c2c[nH]c3ncccc23)o1` [Cpd 299]: in the assay on phospho-akt (Thr308) (PC-3 cells), the inhibition at 1 µM is less than 25% and the inhibition at 10 µM was less than 25%. Moreover, the concentration for half-maximal inhibition (IC50) on phosphorylated PDK1 is less than 500 nM. In the assay on Phospho-T308 Akt, the “Reduction” value is recorded as “bb (inhibition of from 25% to 75%)” and the inhibition at 5 µM was in the range of 25 to 75%.
Turning to `CNC(=O)C[C@@H](NC(=O)c1cccn(Cc2ccc(F)c(F)c2)c1=O)c1ccc(-c2c[nH]c3ncccc23)s1` [Cpd 18], in the assay with phospho-akt (Thr308) (setting [1]), the EC50 fell in the range of 1 to 5 µM. Besides, the EC50 in the assay on phospho-akt (Thr308) (PC-3 cells, 2 hours, no serum, read-out: Reduction of Cellular Levels of Akt p308 By MSD ELISA (EC50 μM)) is 1 to 5 µM. For the same molecule, the IC50 on phosphorylated PDK1 is less than 500 nM. Further, in the assay on Phospho-T308 Akt, the “Reduction” value is reported as “bb (inhibition of from 25% to 75%)” and the inhibition at 2 µM was in the range of 25 to 75%.
Turning to `O=C(NCc1cc(-c2c[nH]c3ncccc23)cs1)c1cccn(Cc2ccc(F)c(F)c2)c1=O` [Cpd 17], in the assay on phospho-akt (Thr308) (setting [1]), the EC50 fell in the range of 1 to 5 µM. In the assay with phospho-akt (Thr308) (PC-3 cells), the inhibition at 1 µM fell in the range of 25 to 75% and the inhibition at 10 µM is more than 75%. Moreover, at phosphorylated PDK1, the IC50 was less than 500 nM. Besides, in the assay on Phospho-T308 Akt, the “Reduction” value is reported as “bbb (inhibition of more than 75%)” and the inhibition at 2 µM was more than 75%.
As for `NC(=O)C[C@@H](NC(=O)c1cccn(Cc2ccc(F)c(F)c2)c1=O)c1ccc(-c2c[nH]c3ncccc23)s1` [Cpd 19], the half-maximal effective concentration (EC50) in the assay on phospho-akt (Thr308) (read-out: Inhibition of P308 Akt in cells using MSD EC50) and in the assay on phospho-akt (Thr308) (setting [2]) was 1 to 5 µM in each case. On phosphorylated PDK1, the IC50 was less than 500 nM. Besides, the “Reduction” value in the assay on Phospho-T308 Akt is reported as “bbb (inhibition of more than 75%)”. Also, the inhibition at 2 µM in the assay on Phospho-T308 Akt was more than 75%.
